ChEMBL document CHEMBL4342454, “Unraveling Structures Containing Highly Conjugated Pyrrolo[4,3,2-de]quinoline Cores That Are Deficient in Diagnostic Proton NMR Signals” (J Nat Prod, 2020)
The source made the active and inactive calls.

Columns and labels:
Hep293TT = test: Cytotoxicity against human Hep293TT cells after 48 hrs by sulforhodamine B assay; type: functional, cell-based
[1] = tested on: Yersinia pseudotuberculosis; test: Inhibition of Yersinia pseudotuberculosis Type 3 secretion system protein by SDS-PAGE analysis
A673 = test: Cytotoxicity against human A673 cells after 48 hrs by sulforhodamine B assay; type: functional, cell-based
Homo sapiens [2] = organism: Homo sapiens; test: Cytotoxicity against human SJCRH30 cells after 48 hrs by sulforhodamine B assay; type: functional, cell-based
Homo sapiens [3] = organism: Homo sapiens; test: Cytotoxicity against human D283 cells after 48 hrs by sulforhodamine B assay; type: functional, cell-based

CN1CCc2c[nH]c3c2c1cc1[o+]c2cc4c5c(c[nH]c5c2nc13)CCN4C
inactive: Activity (Hep293TT) | inhibition [1] | Activity (A673) | Activity (Homo sapiens [2]) | Activity (Homo sapiens [3])

Cc1nc2c(cc1-c1ccc(O)cc1)cc1c3c(c[nH]c32)CCN1C
inactive: Activity (Hep293TT) | inhibition [1] | Activity (A673) | Activity (Homo sapiens [2]) | Activity (Homo sapiens [3])
